In one experiment the target is T1, human GlyT1c transporter (Homo sapiens, UniProt P48067).
T1 construct: expressed in transfected cells; host or cells: CHO cells (recombinant; line hGlyT1c_5_CHO is named for the uptake assay)
T1 sequence (P48067 1-706): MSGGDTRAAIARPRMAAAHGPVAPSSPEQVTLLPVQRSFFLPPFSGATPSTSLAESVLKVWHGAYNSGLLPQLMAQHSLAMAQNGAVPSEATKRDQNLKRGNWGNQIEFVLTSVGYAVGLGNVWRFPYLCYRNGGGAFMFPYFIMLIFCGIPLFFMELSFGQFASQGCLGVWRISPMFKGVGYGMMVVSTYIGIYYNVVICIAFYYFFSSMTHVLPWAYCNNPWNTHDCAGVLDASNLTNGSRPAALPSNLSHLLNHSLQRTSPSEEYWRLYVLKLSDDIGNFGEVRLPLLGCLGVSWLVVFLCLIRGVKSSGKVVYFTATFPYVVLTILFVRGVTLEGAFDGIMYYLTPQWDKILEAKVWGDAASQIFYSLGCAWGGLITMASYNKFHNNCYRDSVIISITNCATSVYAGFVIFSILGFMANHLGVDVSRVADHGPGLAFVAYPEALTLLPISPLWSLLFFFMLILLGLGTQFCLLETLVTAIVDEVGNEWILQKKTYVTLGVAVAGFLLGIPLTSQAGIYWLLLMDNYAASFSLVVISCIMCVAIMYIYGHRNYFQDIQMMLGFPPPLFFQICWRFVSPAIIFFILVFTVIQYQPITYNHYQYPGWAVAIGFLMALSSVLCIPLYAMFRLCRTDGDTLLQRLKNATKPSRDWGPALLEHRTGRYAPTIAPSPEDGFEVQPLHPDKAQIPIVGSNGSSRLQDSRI
In words: Radioligand binding assay using recombinant CHO cell membranes expressing human GlyT1. The settings on record: radioligand binding to human GlyT1c transporter-expressing membranes. An excerpt: 2. Radioligand binding assays using recombinant CHO cell membranes expressing human GlyT1: […]
Usually Ki stands for a measure of affinity in units of concentration, obtained from inhibition or displacement. Take `Cn1cnc(S(=O)(=O)N2C[C@@H](C(=O)NCc3ccc(F)cc3)[C@H](c3ccc(F)cc3)C2)c1` (relative stereo) [Example 630, Trans-N-(4-fluorobenzyl)-4-(4-fluorophenyl)-1-[(1-methyl-1H-imidazol-4-yl)sulfonyl]pyrrolidine-3-carboxamide]: the Ki was at most 100 nM.

Regarding `N#Cc1ccccc1S(=O)(=O)N1C[C@@H](N)[C@H](c2ccccc2)C1` (relative stereo) [Example 527, 2-(Trans-3-amino-4-phenylpyrrolidin-1-ylsulfonyl)benzonitrile], the inhibition constant Ki is at most 10000 nM.

Turning to `COCC(C)NC(=O)[C@@H]1CN(S(=O)(=O)c2cn(C)cn2)C[C@H]1c1ccc(F)cc1` (stereo partly drawn) [Example 582, (3S,4R)-4-(4-fluorophenyl)-N-[1-methoxypropan-2-yl]-1-[(1-methyl-1H-imidazol-4-yl)sulfonyl]pyrrolidine-3-carboxamide], the inhibition constant (Ki) was at most 10000 nM.

Turning to `Cn1cnc(S(=O)(=O)N2C[C@@H](Nc3cc(F)ccc3F)[C@H](c3ccccc3)C2)c1` (relative stereo) [Example 232, trans-N-(2,5-difluorophenyl)-1-[(1-methyl-1H-imidazol-4-yl)sulfonyl]-4-phenylpyrrolidin-3-amine], the Ki is at most 10000 nM.

Consider `Cn1cnc(S(=O)(=O)N2C[C@H](Nc3nccc(C(F)(F)F)c3F)[C@@H](c3ccc(F)cc3)C2)c1` [Example 796, 3-fluoro-N-{(3R,4S)-4-(4-fluorophenyl)-1-[(1-methyl-1H-imidazol-4-yl)sulfonyl]pyrrolidin-3-yl}-4-(trifluoromethyl)pyridin-2-amine], for which the inhibitory constant (Ki) is at most 100 nM.

Turning to `Cn1cnc(S(=O)(=O)N2C[C@@H](C(=O)NCc3ccc(F)c(Cl)c3)[C@H](c3ccc(F)cc3)C2)c1` (relative stereo) [Example 642, Trans-N-(3-chloro-4-fluorobenzyl)-4-(4-fluorophenyl)-1-[(1-methyl-1H-imidazol-4-yl)sulfonyl]pyrrolidine-3-carboxamide], the Ki was at most 10 nM.

As to `Cn1cnc(S(=O)(=O)N2C[C@@H](Nc3ccc(C#N)cc3)[C@H](c3ccccc3)C2)c1` (relative stereo) [Example 52, 4-({trans-1-[(1-methyl-1H-imidazol-4-yl)sulfonyl]-4-phenylpyrrolidin-3-yl}amino)benzonitrile], the Ki was at most 10000 nM.

In the case of `CCOc1cc(N[C@H]2CN(S(=O)(=O)c3cn(C)cn3)C[C@@H]2c2ccccc2)ncn1` [Example 620, 6-ethoxy-N-{(3R,4S)-1-[(1-methyl-1H-imidazol-4-yl)sulfonyl]-4-phenylpyrrolidin-3-yl}pyrimidin-4-amine], the inhibition constant (Ki) was at most 1000 nM.

As for `Cn1cnc(S(=O)(=O)N2C[C@@H](C(=O)NCc3cccc(Cl)c3)[C@H](c3ccc(F)cc3)C2)c1` (relative stereo) [Example 628, Trans-N-(3-chlorobenzyl)-4-(4-fluorophenyl)-1-[(1-methyl-1H-imidazol-4-yl)sulfonyl]pyrrolidine-3-carboxamide], the inhibitory constant (Ki) was at most 10 nM.

Take `O=S(=O)(c1cccnc1)N1CC(Nc2ccc(F)c(F)c2)C(c2ccccc2)C1` (stereo not drawn) [Example 477, N-(3,4-difluorophenyl)-4-phenyl-1-(pyridin-3-ylsulfonyl)pyrrolidin-3-amine]: the Ki was at most 10000 nM.

`Cn1cnc(S(=O)(=O)N2C[C@H](NCc3nc(Br)cs3)[C@@H](c3ccccc3)C2)c1` [Example 472, (3R,4S)-N-[(4-bromo-1,3-thiazol-2-yl)methyl]-1-[(1-methyl-1H-imidazol-4-yl)sulfonyl]-4-phenylpyrrolidin-3-amine]: the inhibitory constant (Ki) was at most 1000 nM.

Take `CC1CCN(S(=O)(=O)N2CC(Nc3ccc(F)c(F)c3)C(c3ccccc3)C2)CC1` (stereo not drawn) [Example 493, N-(3,4-difluorophenyl)-1-[(4-methylpiperidin-1-yl)sulfonyl]-4-phenylpyrrolidin-3-amine]: the inhibition constant Ki was at most 10000 nM.

For `Cn1cnc(S(=O)(=O)N2C[C@@H](Nc3ccccc3)[C@H](c3ccccc3F)C2)c1` (relative stereo) [Example 198, trans-4-(2-fluorophenyl)-1-[(1-methyl-1H-imidazol-4-yl)sulfonyl]-N-phenylpyrrolidin-3-amine], the Ki was at most 1000 nM.

Regarding `CCOC(=O)N[C@H]1CN(S(=O)(=O)c2cn(C)cn2)C[C@@H]1c1ccccc1` [Example 541, ethyl {(3R,4S)-1-[(1-methyl-1H-imidazol-4-yl)sulfonyl]-4-phenylpyrrolidin-3-yl}carbamate], the Ki was at most 10000 nM.

With `Cn1cnc(S(=O)(=O)N2C[C@H](NCc3cncs3)[C@@H](c3ccccc3)C2)c1` [Example 457, (3R,4S)-1-[(1-methyl-1H-imidazol-4-yl)sulfonyl]-4-phenyl-N-(1,3-thiazol-5-ylmethyl)pyrrolidin-3-amine], the Ki was at most 10000 nM.

In the case of `Cn1cnc(S(=O)(=O)N2C[C@@H](Nc3ccc(F)cc3)[C@H](c3cccc(F)c3)C2)c1` (relative stereo) [Example 187, trans-4-(3-fluorophenyl)-N-(4-fluorophenyl)-1-[(1-methyl-1H-imidazol-4-yl)sulfonyl]pyrrolidin-3-amine], the inhibition constant Ki was at most 10000 nM.

Consider `Cn1cnc(S(=O)(=O)N2C[C@@H](OCc3cccc(F)c3)[C@H](c3ccc(F)cc3)C2)c1` (relative stereo) [Example 712, 4-{[trans-3-[(3-fluorobenzyl)oxy]-4-(4-fluorophenyl)pyrrolidin-1-yl]sulfonyl}-1-methyl-1H-imidazole], for which the Ki is at most 1000 nM.

Regarding `CC(C)COc1cc(N[C@H]2CN(S(=O)(=O)c3cn(C)cn3)C[C@@H]2c2ccccc2)ncn1` [Example 624, N-{(3R,4S)-1-[(1-methyl-1H-imidazol-4-yl)sulfonyl]-4-phenylpyrrolidin-3-yl}-6-(2-methylpropoxy)pyrimidin-4-amine], the Ki is at most 1000 nM.

As for `Cn1cnc(S(=O)(=O)N2C[C@@H](CNc3ccc(C(F)(F)F)cc3)[C@H](c3ccc(F)cc3)C2)c1` (relative stereo) [Example 291, N-({trans-4-(4-fluorophenyl)-1-[(1-methyl-1H-imidazol-4-yl)sulfonyl]pyrrolidin-3-yl}methyl)-4-(trifluoromethyl)aniline], the inhibitory constant (Ki) is at most 100 nM.

For `Cn1cnc(S(=O)(=O)N2C[C@@H](Nc3ccc(F)c(OC(F)(F)F)c3)[C@H](c3ncccc3F)C2)c1` (relative stereo) [Example 768, Trans-4-(3-fluoropyridin-2-yl)-N-[4-fluoro-3-(trifluoromethoxy)phenyl]-1-[(1-methyl-1H-imidazol-4-yl)sulfonyl]pyrrolidin-3-amine], the Ki was at most 100 nM.

On to `Cn1cnc(S(=O)(=O)N2C[C@H](Nc3ccc(F)c(F)c3)[C@@H](c3ccc(F)cc3)C2)c1` [Example 418, (3R,4S)-N-(3,4-difluorophenyl)-4-(4-fluorophenyl)-1-[(1-methyl-1H-imidazol-4-yl)sulfonyl]pyrrolidin-3-amine], for which the Ki is at most 100 nM.

For `Cn1cnc(S(=O)(=O)N2C[C@@H](Nc3cc(C(F)(F)F)ccc3F)[C@H](c3ccc(F)cc3)C2)c1` (relative stereo) [Example 169, trans-4-(4-fluorophenyl)-N-[2-fluoro-5-(trifluoromethyl)phenyl]-1-[(1-methyl-1H-imidazol-4-yl)sulfonyl]pyrrolidin-3-amine], the inhibition constant (Ki) is at most 10000 nM.

As for `COc1ccc(S(=O)(=O)N2C[C@@H](NC(=O)c3cccc(C(F)(F)F)c3Cl)[C@H](c3ccccc3)C2)cc1` (relative stereo) [Example 136, 2-chloro-N-{trans-1-[(4-methoxyphenyl)sulfonyl]-4-phenylpyrrolidin-3-yl}-3-(trifluoromethyl)benzamide], the inhibition constant (Ki) was at most 10000 nM.

Regarding `Cn1cnc(S(=O)(=O)N2C[C@H](c3ccccc3)[C@H](NCc3ccccc3)C2)c1` (relative stereo) [Example 157, (cis)-N-benzyl-1-[(1-methyl-1H-imidazol-4-yl)sulfonyl]-4-phenylpyrrolidin-3-amine], the Ki was at most 10000 nM.

Consider `Cn1cnc(S(=O)(=O)N2C[C@@H](Nc3ccc(Cl)c(C(F)(F)F)c3)[C@H](C3CCCO3)C2)c1` (stereo partly drawn) [Example 618, (3S,4R)-N-[4-chloro-3-(trifluoromethyl)phenyl]-1-[(1-methyl-1H-imidazol-4-yl)sulfonyl]-4-(tetrahydrofuran-2-yl)pyrrolidin-3-amine], for which the Ki was at most 1000 nM.

As to `Cn1cnc(S(=O)(=O)N2C[C@@H](Nc3cccc(Cl)c3)[C@H](c3ccc(F)cc3)C2)c1` [Example 325, (3S,4R)-N-(3-chlorophenyl)-4-(4-fluorophenyl)-1-[(1-methyl-1H-imidazol-4-yl)sulfonyl]pyrrolidin-3-amine], the inhibition constant (Ki) was at most 1000 nM.

Still in this experiment, the particulars now being: radioligand binding, recombinant CHO cell membranes expressing human GlyT1c.
For `Cn1cc(S(=O)(=O)N2C[C@H](Nc3cccc(C(F)(F)F)c3)[C@@H](c3ccc(F)cc3)C2)nn1` [Example 839, (3R,4S)-4-(4-fluorophenyl)-1-[(1-methyl-1H-1,2,3-triazol-4-yl)sulfonyl]-N-[3-(trifluoromethyl)phenyl]pyrrolidin-3-amine], the inhibition constant (Ki) was at most 10 nM.

For the origin of these results see EP2970215B1, “PYRROLIDINE DERIVATIVES, PHARMACEUTICAL COMPOSITIONS CONTAINING THEM, AND THEIR USE IN THERAPY” (AbbVie Deutschland GmbH & Co. KG, priority 2013, dated 2014).
